# Data reported in patent publication US12251383B2, “Methods and compositions for KRAS inhibitors” (The Board of Regents of the University of Texas System, priority 2019, dated 2025).
# Columns and labels:
# [1] = target: KRAS-Raf^RBD interaction (Homo sapiens, UniProt P01116); assay: Fluorescence polarization of BGTP-γ-S KRAS with GST-Raf RBD; assay type: binding
# Method: FIGS. 2A-2C show representative data pertaining to the disruption of KRAS-Raf interaction by disclosed compound 11. (FIG. 2A) Fluorescence polarization of ^BGTP-γ-SKRAS (0.5 μM) as a function of a varying concentration of GST-Raf^RBD in the absence (red) and presence (blue) of 1 μM compound 11. Shown above the curves is the KD for KRAS-Raf^RBD binding obtained by fitting the data to
# (§1) [formula] where P1 is polarization of free KRAS, P2 is polarization of Raf-bound KRAS, c is the total concentration of KRAS, and x the total concentration of Raf^RBD. (FIG. 2B) Amount of GFP-KRAS^G12D pulled down by GST-Raf^RBD after treatment of cell lysates with compound at the concentrations indicated (representative Westerns are shown at the top). The RBD sequence length was 1-149 and 51-131 in the fluorescence polarization and pull-down assays, respectively. (FIG. 2C) GFP fluorescence lifetime from FLIM-FRET using cells expressing GFP-KRAS^G12D alone or with RFP-Raf, with or without treatment by 1 μM compound 11. Data are shown as mean±S.E; significance estimated by one-way analysis of variance.
# Fluorescence polarization. Fluorescence polarization assay was conducted following previous reports (48, 49). KRAS was pre-loaded with the non-hydrolyzable fluorescent GTP analog BODIPY-GTP-γ-S (BGTP-γ-S; Life Technologies) using buffer-exchange in NAP-5 (GE Life Sciences) as described in the previous section. Then 0.5 μM (50 μL) of ^BGTP-γ-SKRAS was incubated with an equal volume but varying concentrations (0 to 2.5 μM) of GST-Raf^RBD (Raf RBD residues 1-149; Life Technologies) for 30 min in the dark. To determine the effect of ligand on RAS-Raf binding, KRAS was first incubated with a fixed concentration of the ligand for 30 min and then with GST-Raf^RBD. Fluorescence polarization was measured using PolarStar Optima plate reader (excitation: 485 nm, emission: 520 nm) at room temperature. GST-tag was used to increase the weight of Raf^RBD for a greater polarization. The dissociation constant for KRAS-Raf binding was determined using a quadratic ligand binding equation (48).
# [2] = target: T1, KRAS^G12D-Raf^RBD interaction (Homo sapiens, UniProt P01116, G12D); assay: Pull-down of GFP-KRAS G12D by GST-Raf RBD from cell lysates; assay type: binding
# T1 construct: expressed in transfected cells; host or cells: BHK cells expressing GFP-RAS (lysate); GST-Raf RBD made in E. coli BL21 from a GEX plasmid
# Source text: as §1
# Pull-down. GFP-RAS with GST-tagged RAS binding domain (RBD) of cRaf^A85K (hereafter GST-Raf^RBD) pulled down to monitor RAS-Raf interaction. To prepare GST-Raf^RBD bound to agarose beads, bacteria (BL21) transfected with a previously cloned GEX plasmid were grown in selection media to OD levels of 0.5-1.0 before protein expression was initiated with IPTG (1:1000). After 4 h, the sample was centrifuged at 6000 rpm for 5 min at 4° C., the pellet was re-suspended with PBS containing 5 mM EGTA, 1% Triton X, PIC 1:50 and PMSF 1:100, and cells were lysed with cycles of freezing and thawing. The lysate was sonicated to breakup DNA, and pelleted. […]
# [3] = target: Rap1B (Homo sapiens, UniProt P61224); assay: MST binding, control Rap1B; conditions: control small GTPase
# Source text: (§2) FIGS. 1A-1D show representative data for the predicted binding mode and measured affinity of disclosed compound 11 to KRAS. (FIG. 1A) Structure of the catalytic domain of KRAS used for the virtual screening. Lobe1 (residues 1-86) and lobe2 (residues 87-166) are highlighted in different colors, as well as switches 1 (residues 30-40) and 2 (residues 60-75). The location of the target allosteric pocket p1 is indicated. (FIG. 1B) Chemical structure of compound 11. (FIG. 1C) Predicted binding pose of compound 11, with the key residues that make polar or vdW contacts with the ligand labeled. (FIG. 1D) Microscale thermophoresis (MST) experiments indicating direct binding of compound 11 to KRAS, along with dissociation constants (KD) derived from the curves. Changes in fluorescence upon titration of […] KRAS with increasing concentration of compound are shown: KRAS^WT (red), KRAS^G12C (green), KRAS^G12D (purple) and KRAS^Q61M (blue), each bound to the non-hydrolyzable GTP analogue, guanylyl imidodiphosphate (GNP). The same experiments indicated no binding to GDP-bound KRAS^G12D and KRAS^WT as well as Rap1B, which was used as control. […]
# [4] = test system: RASless MEF cells expressing BRAF V600E; assay: Proliferation of RASless MEF cells expressing BRAF V600E; assay type: cell-based; conditions: Mus musculus, normalized to DMSO control, 3 measurements, read-out: IC50 for inhibition of proliferation
# Method: Cell numbers were averaged from 3 independent measurements and normalized with respect to DMSO control. Assays were conducted as described in McCarthy et al, (ACS Omega2019, 4, 2, 2921-2930).
# [5] = target: KRAS^G12D in the GTP state (Homo sapiens, UniProt P01116, G12D); assay: MST binding, GTP-state KRAS G12D
# Source text: as §2
# [6] = target: KRAS^G12C in the GTP state (Homo sapiens, UniProt P01116, G12C); assay: MST binding, GTP-state KRAS G12C
# Source text: as §2
# Sequence of Rap1B (P61224 whole entry, species assumed, the tested form may be a part): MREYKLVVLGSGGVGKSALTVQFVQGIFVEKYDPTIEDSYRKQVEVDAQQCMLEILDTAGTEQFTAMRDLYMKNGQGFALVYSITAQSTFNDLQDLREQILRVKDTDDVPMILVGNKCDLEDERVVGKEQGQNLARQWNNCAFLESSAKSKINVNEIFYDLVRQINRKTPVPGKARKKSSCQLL
SMILES,effect on interaction of KRAS with GST-Raf^RBD ([1]; 20 μM compound),effect on KRAS^G12D-Raf^RBD interaction (pull-down) ([2]; 10 μM),binding (in words) [3],IC50 [4] [nM],Kd [5] [nM],Kd [6] [nM],"reduction of polarization (RAS-Raf interaction) ([1]; 1 μM compound, at 2 μM GST-Raf^RBD) [%]","reduction of affinity of KRAS to Raf^RBD ([1]; 1 μM compound, from KD of polarization curves) [fold]",decrease in GFP-KRAS^G12D levels pulled down ([2]; at 1 μM) [%]
Cc1cc(N2CCN(CCO)CC2)n2nc(C)c(-c3ccccc3)c2n1 [Compound 13],as effectively as the parent compound,disrupts,,,,,,,
"Cc1nn2c(N3CCN(CCO)CC3)cc(-c3ccccc3)nc2c1-c1ccccc1 [Compound 11, 2-[4-(8-methyl-3,9-diphenyl-2,6,7-triazabicyclo[4.3.0]nona-2,4,7,9-tetraen-5-yl)piperazin-1-yl]ethanol]",,,no binding,1680 ± 170,400 to 700,400 to 700,> 80,~13,> 50
